Like-named read-outs stand apart in the source and are kept apart here.

Test [1] deals with T1, delta opioid receptor (Mus musculus, UniProt P32300).
T1 construct: host or cells: NG108-15 cells (membranes, purchased)
The test can be described thus: [35S]GTPγS binding assay in NG108-15 cell membrane. It is filed as biochemical. To be noted: DOR GTPγS EC50, delta opioid receptor GTPγS functional assay. Here is the method: NG108-15 cell membranes were purchased from Applied Cell Sciences (Rockville, Md.). An 8 mg/mL portion of membrane protein was suspended in 10 mM TRIS-HC pH 7.2, 2 mM EDTA, 10% sucrose.
Membranes were maintained at 4-8° C. A 1 mL portion of membranes was added into 10 mL cold binding assay buffer. The assay buffer contained 50 mM Tris, pH 7.6, 5 mM MgCl2, 100 mM NaCl, 1 mM DTT and 1 mM EGTA. The membrane suspension was homogenized with a Polytron for 2 times and centrifuged at 3000 rpm for 10 min. The supernatent was then centrifuged at 18,000 rpm for 20 min. The pellet was saved in a tube and 10 ml assay buffer was added into the tube. The pellet and buffer were mixed with a Polytron.
The pellet membranes (75 μg/ml) were preincubated with SPA (10 mg/ml) at 25° C. for 45 min in the assay buffer. […] GTPγS in the same Tris buffer containing 100 μM GDP in total volume of 200 μl. Increasing concentrations of receptor agonists were used to stimulate [^35S] GTPγS binding. The basal binding was tested in the absent agonists and no specific binding was tested in the present 10 μM unlabeled GTPγS. The data were analyzed on a Top counter.
% of Basal=(stimulate−non specific)*100/(basal−non specific). EC50 values are calculated using a Prism program.

Test [2] concerns the target T2, Rat brain mu opioid receptor (Rattus norvegicus, UniProt P33535).
T2 construct: from tissue; host or cells: forebrain of male Sprague Dawley rats
The test can be described thus: Rat brain mu opioid receptor binding assay ([3H]DAMGO). Here is the method: • Procedure: Male, Sprague Dawley (150-250 g, VAF, Charles River, Kingston, N.Y.) are killed by CO2, and their brains removed and placed immediately in ice cold Tris HCl buffer (50 mM, pH 7.4). The forebrains are separated from the remainder of the brain by a coronal transection, beginning dorsally at the colliculi and passing ventrally through the midbrain-pontine junction. After dissection, the forebrains are homogenized in Tris buffer in a Teflon®-glass homogenizer. The homogenate is diluted to a concentration of 1 g of forebrain tissue per 80 mL Tris and centrifuged at 39,000×g for 10 min. The pellet is resuspended in the same volume of Tris buffer containing 5 mM MgCl2 with several brief pulses from a Polytron homogenizer. This particulate preparation is used for the mu-opioid binding assays. […] Kd and Ki values are calculated using GraphPad PRISM data analysis program.

Test [3] deals with T3, Rat brain delta opioid receptor (Rattus norvegicus, UniProt P33533).
T3 construct: from tissue; host or cells: rat brain
The test can be described thus: Rat brain delta opioid receptor binding.

In test [4] the target is T4, human mu opioid receptor (Homo sapiens, UniProt P35372).
T4 construct: purchased Receptor Biology, Inc. (Baltimore, Md.); host or cells: CHO cells expressing the human mu receptor (membranes)
The test can be described thus: [35S]GTPγS binding assay in CHO-hμ cell membranes. It is filed as biochemical. To be noted: inhibition relative to 1 uM DAMGO, read-out: hMOR GTPγS % I @10 μM. Here is the method:
CHO-hμ cell membranes are purchased from Receptor Biology, Inc. (Baltimore, Md.). About 10 mg/ml of membrane protein is suspended in 10 mM TRIS-HC pH 7.2, 2 mM EDTA, 10% sucrose.
Membranes are maintained at 4-8° C. 1 ml of membranes is added into 15 ml cold binding assay buffer. The assay buffer contains 50 mM HEPES, pH 7.6, 5 mM MgCl2, 100 mM NaCl, 1 mM DTT and 1 mM EDTA. The membrane suspension is homogenized with a Polytron 2 times and centrifuged at 3000 rpm for 10 min. The supernatant is then centrifuged at 18,000 rpm for 20 min. The pellet is saved in a tube and 10 ml assay buffer is added to the tube. The pellet and buffer are mixed with a Polytron.
The pellet membranes (20 μg/ml) are preincubated with SPA (10 mg/ml) at 25 C′ for 45 min in the assay buffer. The SPA (5 mg/ml) coupled with membranes (10 μg/ml) is then incubated with 0.5 nM [^35S]GTPgS in the same HEPES buffer containing 50 μM GDP in total volume of 200 μl. Increasing concentrations of receptor agonists are used to stimulate [^35S]GTPgS binding. The basal binding is tested in the absence of agonists and non-specific binding is tested in the present 10 μM unlabeled GTPγS. The data are analyzed on a Top counter.
% of Basal=(stimulate−non-specific)*100/(basal−non specific). % inhibition value values are calculated using a formula, % Inhibition=(% Basal of 1 uM DAMGO−% Basal of compound)*100/(% Basal of 1 uM DAMGO−100)

The target of test [5] is T5, human delta opioid receptor (Homo sapiens, UniProt P41143).
T5 construct: purchased Receptor Biology, Inc. (Baltimore, Md.); host or cells: CHO cells expressing the human delta receptor (membranes)
Description: [35S]GTPγS binding assay in CHO-hδ cell membranes. It is filed as biochemical. The procedure: CHO-hδ cell membranes are purchased from Receptor Biology, Inc. (Baltimore, Md.). 10 mg/ml of membrane protein is suspended in 10 mM TRIS-HC pH 7.2, 2 mM EDTA, 10% sucrose.
Membranes are maintained at 4-8° C. 1 ml of membranes is added into 15 ml cold binding assay buffer. The assay buffer contained 50 mM HEPES, pH 7.6, 5 mM MgCl2, 100 mM NaCl, 1 mM DTT and 1 mM EDTA. The membrane suspension is homogenized with a Polytron 2 times and centrifuged at 3000 rpm for 10 min. The supernatant is then centrifuged at 18,000 rpm for 20 min. The pellet is saved in a tube and 10 ml assay buffer is added into the tube. The pellet and buffer are mixed with a Polytron.
The pellet membranes (20 μg/ml) are preincubated with SPA (10 mg/ml) at 25° C. for 45 min in the assay buffer. The SPA (5 mg/ml) coupled with membranes (10 μg/ml) is then incubated with 0.5 nM [^35S]GTPgS in the same HEPES buffer containing 50 μM GDP in total volume of 200 μl. Increasing concentrations of receptor agonists are used to stimulate [^35S]GTPgS binding. The basal binding is tested in the absence of agonists and non-specific binding is tested in the presence of 10 μM unlabeled GTP S. The data are analyzed on a Top counter.

Where [6] appears, read: hDOR GTPγS EC50, human delta opioid receptor GTPγS functional assay.
The mark [7] stands for this setting: human delta opioid receptor GTPγS functional assay, read-out: hDOR GTPγS EC50.

T4 sequence (P35372 whole entry): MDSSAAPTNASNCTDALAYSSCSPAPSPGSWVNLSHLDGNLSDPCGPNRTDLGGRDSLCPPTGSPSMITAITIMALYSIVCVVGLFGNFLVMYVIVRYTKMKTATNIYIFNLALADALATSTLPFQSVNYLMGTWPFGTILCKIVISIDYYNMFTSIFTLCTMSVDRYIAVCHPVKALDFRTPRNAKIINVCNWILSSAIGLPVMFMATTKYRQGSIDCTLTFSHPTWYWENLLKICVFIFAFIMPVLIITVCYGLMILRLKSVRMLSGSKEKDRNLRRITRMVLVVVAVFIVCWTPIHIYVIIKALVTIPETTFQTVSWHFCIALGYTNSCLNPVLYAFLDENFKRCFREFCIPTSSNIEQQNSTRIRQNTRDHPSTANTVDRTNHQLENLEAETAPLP
T1 sequence (P32300 whole entry): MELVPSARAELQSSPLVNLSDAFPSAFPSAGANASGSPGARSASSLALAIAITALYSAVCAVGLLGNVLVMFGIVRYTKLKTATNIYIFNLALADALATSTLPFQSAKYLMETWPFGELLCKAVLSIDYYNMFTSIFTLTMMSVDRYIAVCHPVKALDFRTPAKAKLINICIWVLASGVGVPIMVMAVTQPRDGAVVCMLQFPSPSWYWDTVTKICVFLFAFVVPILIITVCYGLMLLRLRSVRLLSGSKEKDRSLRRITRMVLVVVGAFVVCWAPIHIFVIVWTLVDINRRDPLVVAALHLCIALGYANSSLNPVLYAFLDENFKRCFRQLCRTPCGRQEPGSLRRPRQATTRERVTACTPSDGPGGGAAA
T3 sequence (P33533 whole entry): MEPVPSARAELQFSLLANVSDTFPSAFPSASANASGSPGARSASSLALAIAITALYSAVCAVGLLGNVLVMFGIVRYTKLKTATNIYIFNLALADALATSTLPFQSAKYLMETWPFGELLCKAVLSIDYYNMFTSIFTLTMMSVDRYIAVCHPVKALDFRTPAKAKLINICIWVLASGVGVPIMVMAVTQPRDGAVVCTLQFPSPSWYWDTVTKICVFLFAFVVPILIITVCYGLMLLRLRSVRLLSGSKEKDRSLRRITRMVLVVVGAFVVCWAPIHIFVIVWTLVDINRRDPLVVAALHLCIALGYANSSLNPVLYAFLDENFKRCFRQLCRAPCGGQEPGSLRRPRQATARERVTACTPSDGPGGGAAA
T5 sequence (P41143 whole entry): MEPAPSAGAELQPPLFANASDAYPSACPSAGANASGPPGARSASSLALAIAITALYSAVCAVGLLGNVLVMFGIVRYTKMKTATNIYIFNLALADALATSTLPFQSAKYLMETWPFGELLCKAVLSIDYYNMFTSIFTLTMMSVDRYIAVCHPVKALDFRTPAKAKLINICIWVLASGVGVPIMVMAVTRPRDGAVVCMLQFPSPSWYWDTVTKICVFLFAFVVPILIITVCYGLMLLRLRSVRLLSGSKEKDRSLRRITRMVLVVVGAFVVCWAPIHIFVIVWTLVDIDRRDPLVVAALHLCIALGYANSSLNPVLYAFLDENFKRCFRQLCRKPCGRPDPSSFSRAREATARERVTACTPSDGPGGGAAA
T2 sequence (P33535 whole entry): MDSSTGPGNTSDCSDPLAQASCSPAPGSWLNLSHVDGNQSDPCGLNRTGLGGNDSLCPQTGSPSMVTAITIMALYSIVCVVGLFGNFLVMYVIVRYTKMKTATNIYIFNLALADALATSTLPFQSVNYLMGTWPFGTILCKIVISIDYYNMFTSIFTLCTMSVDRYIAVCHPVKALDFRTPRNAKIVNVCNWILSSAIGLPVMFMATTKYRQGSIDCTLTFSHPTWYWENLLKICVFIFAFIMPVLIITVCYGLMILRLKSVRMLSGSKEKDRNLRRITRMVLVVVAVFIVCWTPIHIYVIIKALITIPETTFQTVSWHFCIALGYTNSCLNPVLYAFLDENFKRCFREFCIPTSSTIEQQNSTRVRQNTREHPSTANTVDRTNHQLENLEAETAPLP

The compound `CC(C)N(C)C(=O)c1ccc2c(c1)Oc1ccccc1C2=C1CC2CCC(C1)N2` [Compound 92, 9-(8-Aza-bicyclo[3.2.1]oct-3-ylidene)-9H-xanthene-3-carboxylic acid isopropyl-methyl-amide] displayed an EC50 in test [1] of 55.3 nM. For the same compound, the Ki in test [2] (rMOR Ki) and in test [3] (rDOR Ki) was 2.09 nM throughout.
For `CCN(CC)C(=O)c1ccc2c(c1)Oc1c(Br)cccc1C2=C1CC2CCC(C1)N2` [Compound 94, 9-(8-Aza-bicyclo[3.2.1]oct-3-ylidene)-5-bromo-9H-xanthene-3-carboxylic acid diethylamide], in test [1], the EC50 came to 14.1 nM. Besides, the figures for the Ki in test [2] (rMOR Ki) and in test [3] (rDOR Ki) were 674 nM and 2.28 nM, respectively.
On the same counts, the results for `CCN(CC)C(=O)c1ccc2c(c1)Oc1c(cccc1-c1ccncc1)C2=C1CC2CCC(C1)N2` [Compound 96, 9-(8-Aza-bicyclo[3.2.1]oct-3-ylidene)-5-pyridin-4-yl-9H-xanthene-3-carboxylic acid diethylamide] are 35.3 nM, 4220 nM and 1.69 nM.
On the same counts, the results for `CCN(CC)C(=O)c1ccc2c(c1)Oc1c(cccc1-c1cccnc1)C2=C1CC2CCC(C1)N2` [Compound 101, 9-(8-Aza-bicyclo[3.2.1]oct-3-ylidene)-5-pyridin-3-yl-9H-xanthene-3-carboxylic acid diethylamide] are 19.3 nM, 532 nM and 9.14 nM.
For the compound `CCN(CC)C(=O)c1ccc2c(c1)Oc1ccc(F)cc1C2=C1CC2CCC(C1)N2` [Compound 69], in test [1], the EC50 stood at 126 nM. For the same compound, the Ki worked out at 5830 nM in test [2] (rMOR Ki) and 4.99 nM in test [3] (rDOR Ki).
As for `CCN(CC)C(=O)c1ccc2c(c1)Oc1ccccc1C2=C1CC2CCC(C1)N2` [Compound 24, 9-(8-Aza-bicyclo[3.2.1]oct-3-ylidene)-9H-xanthene-3-carboxylic acid diethylamide], the Ki in test [2] (rMOR Ki) worked out at 5690 nM; in test [3] (rDOR Ki) it was 0.57 nM. Further, in test [4], the inhibition at 10 µM was 1%. This compound also gave an EC50 in test [5] (setting [6]) of 10.2 nM.
On the same counts, the results for `CCN(CC)C(=O)c1ccc2c(c1)Oc1ccccc1C2=C1CCN(Cc2ccccn2)CC1` [Compound 29] are 362 nM, 0.05 nM, 34% and 31.6 nM.
As for `CCN(CC)C(=O)c1ccc2c(c1)Oc1cc(O)ccc1C2=C1CC2CCC(C1)N2` [Compound 76, 9-(8-Aza-bicyclo[3.2.1]oct-3-ylidene)-6-hydroxy-9H-xanthene-3-carboxylic acid diethylamide], in test [1], the EC50 is 5.91 nM. Also, the Ki is 285 nM in test [2] (rMOR Ki) and 1.7 nM in test [3] (rDOR Ki).
On the same counts, the results for `CCN(CC)C(=O)c1ccc2c(c1)Oc1c(cccc1-c1ccoc1)C2=C1CC2CCC(C1)N2` [Compound 97, 9-(8-Aza-bicyclo[3.2.1]oct-3-ylidene)-5-furan-3-yl-9H-xanthene-3-carboxylic acid diethylamide] are 13.3 nM, 1810 nM and 1.78 nM.
With `CCN(CC)C(=O)c1ccc2c(c1)Oc1ccccc1C2=C1CCN(C=S)CC1` [Compound 37, 9-(1-Thioformyl-piperidin-4-ylidene)-9H-xanthene-3-carboxylic acid diethylamide], the Ki in test [2] (rMOR Ki) is more than 10000 nM; in test [3] (rDOR Ki) it was 2.02 nM. Further, the inhibition at 10 µM in test [4] amounted to 5%. Further, a half-maximal effect in test [5] (setting [6]) (EC50) was put at 921 nM.
For `CCN(CC)C(=O)c1ccc2c(c1)OCc1ccccc1C2=C1CCN(Cc2ccc3c(c2)OCO3)CC1` [Compound 4, 11-(1-Benzo[1,3]dioxol-5-ylmethyl-piperidin-4-ylidene)-6,11-dihydro-dibenzo[b,e]oxepine-3-carboxylic acid diethylamide], the Ki in test [2] (read-out: rMOR Ki) was determined as 301 nM; in test [3] (rDOR Ki), 0.39 nM. The inhibition at 10 µM in test [4] stood at 9%. Moreover, in test [5] (setting [7]), the EC50 was 552 nM.
In test [1], `CCN(CC)C(=O)c1ccc2c(c1)Oc1c(O)cccc1C2=C1CC2CCC(C1)N2` [Compound 100, 9-(8-Aza-bicyclo[3.2.1]oct-3-ylidene)-5-hydroxy-9H-xanthene-3-carboxylic acid diethylamide] returned an EC50 of 0.452 nM. The figures for the Ki in test [2] (rMOR Ki) and in test [3] (rDOR Ki) were 5.85 nM and 0.274 nM, respectively.
Regarding `CCN(CC)C(=O)c1ccc2c(c1)Oc1ccccc1C2=C1CC2CCC(C1)N2Cc1ccccn1` [Compound 44], the Ki was 77.2 nM in test [2] (rMOR Ki) and 0.15 nM in test [3] (rDOR Ki). The inhibition at 10 µM in test [4] was 28%. Besides, the midpoint of the response in test [5] (setting [6]), the EC50, lay at 0.873 nM.
For the compound `CCN(CC)C(=O)c1ccc2c(c1)Oc1ccccc1C2=C1CCN(Cc2ccoc2)CC1` [Compound 28, 9-(1-Furan-3-ylmethyl-piperidin-4-ylidene)-9H-xanthene-3-carboxylic acid diethylamide], the results for the Ki in test [2] (rMOR Ki) and in test [3] (rDOR Ki) were 811 nM and 0.07 nM, respectively. For the same compound, the inhibition at 10 µM in test [4] came to 24%. The compound further gave an EC50 in test [5] (setting [6]) of 70.3 nM.
For the compound `C=CCN1CCC(=C2c3ccccc3Oc3cc(C(=O)N(CC)CC)ccc32)CC1` [Compound 8, 9-(1-Allyl-piperidin-4-ylidene)-9H-xanthene-3-carboxylic acid diethylamide], the Ki was determined as 2820 nM in test [2] (read-out: rMOR Ki) and 2.1 nM in test [3] (rDOR Ki). Further, the inhibition at 10 µM in test [4] turned out to be 1%. Further, the EC50 in test [5] (setting [7]) is 620 nM.
On to `CCN(CC)C(=O)c1ccc2c(c1)Oc1ccccc1C2C1CCNCC1` (centres unmarked) [Compound 42, 9-Piperidin-4-yl-9H-xanthene-3-carboxylic acid diethylamide], for which the Ki in test [2] (read-out: rMOR Ki) came out at 8790 nM; in test [3] (read-out: rDOR Ki), 14.7 nM. Besides, the inhibition at 10 µM in test [4] stood at 4%. Also, the 50% effective concentration (EC50) in test [5] (setting [7]) was 266 nM.

In general, EC50 refers to the concentration that produces a half-maximal response. What is called Ki is a dissociation constant, usually derived from enzyme kinetics or from competition with a known ligand.
